Results on one compound are retold here after patent US20070004635A1, “Method of treating interferon non-responders using HCV protease inhibitor” (Schering Corporation, priority 2005, published 2007).

Experiment [1] relates to HCV Genotype 1 (either Genotype 1a or Genotype 1b). The experiment in a line: Rising multiple dose study in non-responder patients, HCV-RNA viral load by RT-PCR. The experiment is classed as in vivo. As for the experimental part: A rising multiple dose study was conducted in four groups of non-responder patients in which 100, 200 and 400 mg BID and 400 mg TID dosages of the compound of Formula la were administered for 14 days. […] The methodology used was a randomized, placebo controlled, multi-center, third-party-blind, multiple-dose study of the compound of Formula Ia in non-responders conducted in accordance with Good Clinical Practices. For the purpose of this study, it should be noted that the non-responders also were patients in whom one or more symptoms were established in association with, or the possibility of one or more symptoms was suspected of in association with, HCV Genotype 1 (either Genotype 1a or Genotype 1b) specifically. In order to measure viral load, the Hepatitis C virus RNA (HCV-RNA) is measured by extracting total RNA from plasma or serum samples and using an in-house real-time reverse transcriptase polymerase chain reaction (RT-PCR) assay with a lower limit of detection of 29 International Units (IU)/mL. The amplification target is the 5′-Untranslated region (UTR) of the HCV genome. An internal RNA control is added to each sample to assess the efficiency of RNA extraction. Appropriate negative and positive controls are added in each assay run. The assay method has been validated against the WHO International Standard for HCV. The HCV-RNA amount in a sample is reported as copies of HCV-RNA per mL of sample and also as HCV IU per mL of sample. When <100 copies of HCV-RNA per mL are found, the HCV-RNA is considered to be undetectible.

Experiment [2] deals with HCV Genotype 1 (1a or 1b). The experiment in a line: Parallel group, rising multiple-dose, 3 period crossover study in non-responders, HCV-RNA viral load. It is filed as in vivo, patients. The procedure: In order to measure viral load, the Hepatitis C virus RNA (HCV-RNA) is measured by extracting total RNA from plasma or serum samples and using an in-house real-time reverse transcriptase polymerase chain reaction (RT-PCR) assay with a lower limit of detection of 29 International Units (IU)/mL. The amplification target is the 5′-Untranslated region (UTR) of the HCV genome. An internal RNA control is added to each sample to assess the efficiency of RNA extraction. Appropriate negative and positive controls are added in each assay run. The assay method has been validated against the WHO International Standard for HCV. The HCV-RNA amount in a sample is reported as copies of HCV-RNA per mL of sample and also as HCV IU per mL of sample. When <100 copies of HCV-RNA per mL are found, the HCV-RNA is considered to be undetectible.
A second study was commenced in patients having detectible levels ([…] copies per mL tissue or fluid) HCV Genotype 1 (1a or 1b) and whom were already established as non-responders from previous trials.
The methodology of the study was a parallel group, rising, multiple-dose, 3 period crossover (within each group) study in which subjects are treated with pegylated interferon (PEG-Intron, commercially available from Schering-Plough), 1.5 mcg/kg of the compound of Formula Ia or combination treatment of PEG-Intron 1.5 mcg/kg and the compound of Formula Ia. The doses of the compound of Formula Ia used for each group were 200 mg TID or 400 mg TID.
Twelve patients were treated in a random sequence with each 200 mg TID dose of the compound of Formula Ia alone for 7 days, PEG-Intron once weekly for two doses, and a combination treatment of 200 mg TID of the compound of Formula la plus PEG-Intron for 14 days. Preliminary results from the 200 mg TID dose group are illustrated in FIG. 2.

Consider `CC(C)(C)NC(=O)N[C@H](C(=O)N1C[C@H]2[C@@H]([C@H]1C(=O)NC(CC1CCC1)C(=O)C(N)=O)C2(C)C)C(C)(C)C` (mixture of isomers) [Formula Ia], for which the “average maximum reduction of viral load from baseline” value in experiment [1] (400 mg TID for 14 days, monotherapy, 10 non-responder patients) came to 2 logs. In addition, the “effect of monotherapy on viral load” value in experiment [1] (100, 200 and 400 mg BID and 400 mg TID for 14 days) is given as “reduced viral load in all patients”. In experiment [1] (after the 14-day treatment, all patients), the “HCV-RNA viral load following discontinuation of treatment” value was “returned to baseline levels in all patients”. Also, the “mean maximum HCV-RNA reduction” value in experiment [2] (200 mg TID alone for 7 days, preliminary results) worked out at 0.85 logs. Besides, the “average maximum reduction in HCV-RNA viral load” value in experiment [2] (200 mg TID in combination with PEG-Intron 1.5 mcg/kg weekly, two weeks of treatment) turned out to be 2.4 logs. In experiment [2] (200 mg TID in combination with PEG-Intron, 14 days), the “course of viral load in the second week” value is “viral load continued to decline in the second week”. Further, in experiment [2] (200 mg TID in combination with PEG-Intron, end of 14 days, one patient (decrease by 4.5 logs)), the “HCV-RNA viral load level of one patient at the end of therapy (undetectible)” value was < 100 copies per mL of tissue or fluid.
